Data published in patent publication US20250295701A1, “Kit for Induction of Continuous Expansion of Hepatoblast Organoids and/or Hepatocyte Organoids Under 3D Suspension Conditions and Use Thereof” (South China University of Technology, priority 2022, published 2025).
Values belong to the compound of their own block, whether it stands above or below them.

Legend:
hepatoblasts = test: Step-down removal of factors from the HB organoid expansion medium; assay type: cell-based, human; conditions: for Ki67 expression level after removing the factor: flow cytometry, compared with complete medium group
Description: Based on the related-signaling pathways affecting the regeneration/proliferation/expansion of hepatoblasts in vivo and in vitro, the development of the medium formula for HB organoid expansion was to initially select small molecules or cytokines corresponding to the pathways to mimic the process of hepatic progenitor regeneration, and finally the combination of small molecules with cytokines had been established. Through comprehensive investigation on a large amount of literature, it had been shown that Wnt, TGFβ, cAMP, Activin, EGF and HGF pathways were related to the regeneration of hepatoblasts. […] Afterwards, the step-down method through removing factors one by one from the combination had been used to verify which small molecule/cytokine was essential for the long-term culture of hepatoblasts. […] Finally, flow cytometry had been used to detect the expression levels of cell proliferation marker Ki67. […] Therefore, finally the expansion medium of HB organoid was determined as the fifth medium in Example 1: IMDM medium supplemented with 10 % w/w FBS, 1% w/w ITS, 1% w/w NEAA, 1% w/w GlutaMAX, 10 mM Nicotinamide, 5 μM CHIR99021, 10 µM SB431542, 10 μM FSK, 20 ng/mL FGF-4, 20 ng/mL BMP4, 20 ng/mL EGF and 5% Matrigel.

[1] = system: polarized hepatocyte organoids; test: Cholestasis detection by CDFDA staining; assay type: cell-based, human; conditions: drug at its IC25 value for 48 hours
Protocol: In addition, CDFDA staining was used to test the appearance of the cholestasis in polarized hepatocyte organoids which are treated by these drugs at IC25 values of each drug for 48 hours, and then the occurrence of the cholestasis after drug treatment was evaluated by whether fluorescent CDFDA product is transported into bile canaliculi through apical protein.

[2] = system: polarized hepatocyte organoids; test: Drug toxicology analysis (cell viability, IC50) in polarized hepatocyte organoids; assay type: cell-based, human; conditions: 48 hours after drug treatment, cell viability detection kit
Protocol: Polarized hepatocyte organoids (could be used in drug screening models 6 days after the maturation) after the maturation from the differentiation were collected, and distributed into ultra-low attachment 96-well culture plates using the pipette, about 10-20 organoids were seeded in each well, then different drugs could be employed for toxicology analysis. In this Example, toxicology analysis was performed on 8 kinds of drugs (Mannitol, Troglitazone, Chlorpromazine, Diclofenac, Cyclosporine A, Nefazodone, Tolcapone, Bosentan) to detect the ability of polarized hepatocyte organoids to predict the toxicity of each drug during drug screening/toxicology analysis. During the toxicology analysis, at least 7 different concentrations were selected for each drug, and wells in triplicate were performed for each concentration. Forty-eight hours after drug treatment, cell viabilities are detected using cell viability detection kit and IC50 curves were drawn. Finally, IC50 value of each drug for each cell type was calculated. In addition to polarized hepatocyte organoids, non-polarized hepatocyte spheroids and HepG2 cells (hepatoma cell lines, commonly used for hepatocyte drug screening) spheroids were also simultaneously used for drug toxicology analysis.

hepatocyte organoids = test: Hepatocyte lipid accumulation model induced with oleic acid; assay type: cell-based, human
Protocol: After mature hepatocyte organoids were differentiated from long-term cultured HB organoids (the lipid accumulation model could be developed 6 days after the differentiation), oleic acid (OA) was used with the concentrations at 200 and 800 μM to induce the lipid accumulation model. […] Next spermidine (SPD), a drug that alleviates lipid accumulation in hepatocytes, was used to conduct the rescue. SPD was added into the medium at 200 μM at the same time during the treatment with OA. […] The above results lay the foundation for the subsequent applications of polarized hepatocyte organoids in the development of drugs related to hepatocyte lipid accumulation and the treatment of lipid accumulation.

[3] = system: phase I metabolizing enzymes
[4] = factor removed from complete medium

Compound: Cc1c[nH]c(-c2cnc(NCCNc3ccc(C#N)cn3)nc2-c2ccc(Cl)cc2Cl)n1 [CHIR99021]
efficiency of cloning formation after removing the factor (hepatoblasts; [4]): significantly reduced | morphological changes of cell spheroids after removing the factor (hepatoblasts; [4]): unable to form hollow organoid-like structures

occurrence of the cholestasis [1]: do not induce the cholestasis
Compound: O=C(O)Cc1ccccc1Nc1c(Cl)cccc1Cl [Dicofenac, Diclofenac]

occurrence of the cholestasis [1]: do not induce the cholestasis
Compound: OC[C@@H](O)[C@@H](O)[C@H](O)[C@H](O)CO [Mannitol]
toxicity to hepatocytes [2]: no toxic

Compound: CCCCCCCC/C=C\CCCCCCCC(=O)O [OA, oleic acid]
levels of intracellular ROS (hepatocyte organoids; OA 200 and 800 μM, flow cytometry): increased | levels of intracellular triglyceride (hepatocyte organoids; OA 200 and 800 μM, kit): increase | content of lipid droplets (hepatocyte organoids; OA 200 and 800 μM, two days, oil red staining): gradually increased | expression levels of lipid accumulation related genes FASN and PLIN2 (hepatocyte organoids; after OA modeling, qPCR): significantly increased

Compound: NC(=O)c1ccc(-c2nc(-c3ccc4c(c3)OCO4)c(-c3ccccn3)[nH]2)cc1 [SB431542]
efficiency of cloning formation after removing the factor (hepatoblasts; [4]): significantly reduced

Compound: NCCCCNCCCN [SPD, spermidine]
relative number of lipid droplets (hepatocyte organoids; SPD 200 μM added with OA, two days): significantly reduced | expression levels of genes related to lipid accumulation (hepatocyte organoids; SPD 200 μM added with OA, two days, qPCR): decreased

occurrence of the cholestasis [1]: do not induce the cholestasis
Compound: Cc1ccc(C(=O)c2cc(O)c(O)c([N+](=O)[O-])c2)cc1 [Tolcapone]

Compound: C[C@@H](N)[C@H]1CC[C@H](C(=O)Nc2ccncc2)CC1 [Y27632, Y-27632]
effect of Rock inhibitor during the expansion of HB organoids (hepatoblasts; added at cell inoculation): only maintains cell viability at day 0 | Ki67 expression level after removing the factor (hepatoblasts): higher expression peak

drug metabolism levels (metabolic function of CYP3A4, CYP2C9 and CYP1A2) [3]: higher
Compound: COc1ccc2[nH]c([S+]([O-])Cc3ncc(C)c(OC)c3C)nc2c1 (centres unmarked) [omeprazole]

Compound: hepatocyte growth factor [HGF]
Ki67 expression level after removing the factor (hepatoblasts): higher expression peak
